From the supplement of paper PMC10627819

Assays:
Assay in all cases: Bliss interaction score (quartile over a dose matrix) (fitness difference); higher = more antagonism (negative = synergy)
S. aureus Newman = tested on: S. aureus Newman
Procedure, shortened: (§1)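 The Bliss score is observed fitness minus expected fitness, where the expected value is the product of single-drug fitness values inferred from combination data. Fitness is OD595 at entry into stationary phase normalised to the plate's robust no-drug mean and capped at 1. Scores are reported as quartiles spanning technical, biological and donor/recipient replicates.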

S. aureus DSM 20231 = tested on: S. aureus DSM 20231
Procedure, shortened: as §1

S. pneumoniae D39V = tested on: S. pneumoniae D39V
Procedure, shortened: as §1

B. subtilis 168 = tested on: B. subtilis 168
Procedure, shortened: as §1
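Note: first quartile when negative (synergy) and third quartile when positive (antagonism).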

Structure (SMILES) | Bliss interaction score (S. aureus Newman) | Bliss interaction score (S. aureus DSM 20231) | Bliss interaction score (S. pneumoniae D39V) | Bliss interaction score (B. subtilis 168) | Bliss interaction score (S. aureus Newman; main component drawn) | Bliss interaction score (S. aureus DSM 20231; main component drawn) | Bliss interaction score (S. pneumoniae D39V; main component drawn) | Bliss interaction score (B. subtilis 168; main component drawn)
CC[C@H]1OC(=O)[C@H](C)[C@@H](O[C@H]2C[C@@](C)(OC)[C@@H](O)[C@H](C)O2)[C@H](C)[C@@H](O[C@@H]2O[C@H](C)C[C@H](N(C)C)[C@H]2O)[C@](C)(OC)C[C@@H](C)C(=O)[C@H](C)[C@@H](O)[C@]1(C)O [Clarithromycin] + Oc1cc(Cl)ccc1Oc1ccc(Cl)cc1Cl [Triclosan] | 0.032 | -0.0868 | 0.0396 | 0.0259 |  |  |  | 
CC(=O)OC[C@H]1O[C@@H]([S-])[C@H](OC(C)=O)[C@@H](OC(C)=O)[C@@H]1OC(C)=O.CCP(CC)CC.[Au+] [Auranofin] + C/C(=C\C(=O)OCCCCCCCCC(=O)O)C[C@@H]1OC[C@H](C[C@@H]2O[C@H]2[C@@H](C)[C@H](C)O)[C@@H](O)[C@H]1O [Pseudomonic acid] | 0.0254 | 0.0133 | 0.081 | 0.0268 |  |  |  | 
CC(=O)O[C@H]1C[C@@]2(C)[C@@H](C[C@@H](O)[C@H]3[C@@]4(C)CC[C@@H](O)[C@@H](C)[C@@H]4CC[C@@]32C)/C1=C(\CCC=C(C)C)C(=O)O [Fusidic acid] + CCC[C@@H]1C[C@@H](C(=O)N[C@@H]([C@H]2O[C@H](SC)[C@H](O)[C@@H](O)[C@H]2O)[C@@H](C)O)N(C)C1 [Lincomycin] | -0.0595 | -0.0572 | -0.0651 | 0.0915 |  |  |  | 
O=C(N[C@H](CO)[C@H](O)c1ccc([N+](=O)[O-])cc1)C(Cl)Cl [Chloramphenicol] + CC(=O)O[C@H]1C[C@@]2(C)[C@@H](C[C@@H](O)[C@H]3[C@@]4(C)CC[C@@H](O)[C@@H](C)[C@@H]4CC[C@@]32C)/C1=C(\CCC=C(C)C)C(=O)O [Fusidic acid] | -0.0559 | 0.0319 | -0.103 | 0.074 |  |  |  | 
CC(=O)OC[C@H]1O[C@@H]([S-])[C@H](OC(C)=O)[C@@H](OC(C)=O)[C@@H]1OC(C)=O.CCP(CC)CC.[Au+] [Auranofin] + CC1=C\[C@@H](O)CC(=O)Cc2nc(co2)C(=O)N2CCC=C2C(=O)O[C@H](C(C)C)[C@H](C)/C=C/C(=O)NC\C=C\1 [Virginiamycin M1] | -0.0212 | -0.0753 | 0.0585 | -0.0329 |  |  |  | 
CC(=O)O[C@H]1C[C@@]2(C)[C@@H](C[C@@H](O)[C@H]3[C@@]4(C)CC[C@@H](O)[C@@H](C)[C@@H]4CC[C@@]32C)/C1=C(\CCC=C(C)C)C(=O)O [Fusidic acid] + C[C@@H](O)[C@H]1C(=O)N2C(C(=O)O)=C(SCCNC=N)C[C@H]12 [Imipenem] | 0.0214 | 0.0208 | 0.0477 | 0.138 |  |  |  | 
O=C(N[C@H](CO)[C@H](O)c1ccc([N+](=O)[O-])cc1)C(Cl)Cl [Chloramphenicol] + Oc1cc(Cl)ccc1Oc1ccc(Cl)cc1Cl [Triclosan] | 0.0302 | -0.0764 | 0.0444 | -0.0443 |  |  |  | 
CCC[C@@H]1C[C@@H](C(=O)N[C@@H]([C@H]2O[C@H](SC)[C@H](O)[C@@H](O)[C@H]2O)[C@@H](C)O)N(C)C1 [Lincomycin] + CN[C@H](CC(C)C)C(=O)N[C@H]1C(=O)N[C@@H](CC(N)=O)C(=O)N[C@H]2C(=O)N[C@H]3C(=O)N[C@H](C(=O)N[C@H](C(=O)O)c4cc(O)cc(O)c4-c4cc3ccc4O)[C@H](O[C@H]3C[C@](C)(N)[C@@H](O)[C@H](C)O3)c3ccc(c(Cl)c3)Oc3cc2cc(c3O[C@@H]2O[C@H](CO)[C@@H](O)[C@H](O)[C@H]2O[C@H]2C[C@](C)(NCc3ccc(-c4ccc(Cl)cc4)cc3)[C@@H](O)[C@H](C)O2)Oc2ccc(cc2Cl)[C@H]1O [Oritavancin] | -0.0583 | -0.0375 | 0.0612 | 0.0264 |  |  |  | 
CC(=O)O[C@H]1C[C@@]2(C)[C@@H](C[C@@H](O)[C@H]3[C@@]4(C)CC[C@@H](O)[C@@H](C)[C@@H]4CC[C@@]32C)/C1=C(\CCC=C(C)C)C(=O)O [Fusidic acid] + CCCCCCCCCC(=O)N[C@@H]1[C@H]([C@@H]([C@H](O[C@H]1OC2=C3C=C4C=C2OC5=C(C=C(C=C5)[C@H]([C@H]6C(=O)N[C@@H](C7=C(C(=CC(=C7)O)OC8[C@H]([C@H]([C@@H]([C@H](O8)CO)O)O)O)C9=C(C=CC(=C9)[C@H](C(=O)N6)NC(=O)[C@@H]4NC(=O)[C@@H]1C2=CC(=CC(=C2)OC2=C(C=CC(=C2)[C@H](C(=O)N[C@H](CC2=CC(=C(O3)C=C2)Cl)C(=O)N1)N)O)O)O)C(=O)O)O[C@H]1[C@@H]([C@H]([C@@H]([C@H](O1)CO)O)O)NC(=O)C)Cl)CO)O)O [Teicoplanin] |  |  |  |  | -0.0424 | 0.0374 | 0.0761 | -0.0459
C[C@@H](O)[C@H]1C(=O)N2C(C(=O)O)=C(SCCNC=N)C[C@H]12 [Imipenem] + Oc1cc(Cl)ccc1Oc1ccc(Cl)cc1Cl [Triclosan] | 0.0211 | 0.0376 | 0.0753 | -0.0589 |  |  |  | 
CC(=O)O[C@H]1C[C@@]2(C)[C@@H](C[C@@H](O)[C@H]3[C@@]4(C)CC[C@@H](O)[C@@H](C)[C@@H]4CC[C@@]32C)/C1=C(\CCC=C(C)C)C(=O)O [Fusidic acid] + COc1c(N2C[C@@H]3CCCN[C@@H]3C2)c(F)cc2c(=O)c(C(=O)O)cn(C3CC3)c12 [Moxifloxacin] | 0.0453 | 0.0361 | 0.048 | 0.0398 |  |  |  | 
CC[C@H]1OC(=O)[C@H](C)[C@@H](O[C@H]2C[C@@](C)(OC)[C@@H](O)[C@H](C)O2)[C@H](C)[C@@H](O[C@@H]2O[C@H](C)C[C@H](N(C)C)[C@H]2O)[C@](C)(OC)C[C@@H](C)C(=O)[C@H](C)[C@@H](O)[C@]1(C)O [Clarithromycin] + CCCCCCCCCC(=O)N[C@@H]1[C@H]([C@@H]([C@H](O[C@H]1OC2=C3C=C4C=C2OC5=C(C=C(C=C5)[C@H]([C@H]6C(=O)N[C@@H](C7=C(C(=CC(=C7)O)OC8[C@H]([C@H]([C@@H]([C@H](O8)CO)O)O)O)C9=C(C=CC(=C9)[C@H](C(=O)N6)NC(=O)[C@@H]4NC(=O)[C@@H]1C2=CC(=CC(=C2)OC2=C(C=CC(=C2)[C@H](C(=O)N[C@H](CC2=CC(=C(O3)C=C2)Cl)C(=O)N1)N)O)O)O)C(=O)O)O[C@H]1[C@@H]([C@H]([C@@H]([C@H](O1)CO)O)O)NC(=O)C)Cl)CO)O)O [Teicoplanin] |  |  |  |  | 0.173 | 0.099 | -0.0509 | 0.0401
O=C1CN(/N=C/c2ccc([N+](=O)[O-])o2)C(=O)N1 [Nitrofurantoin] + CO[C@@H]1[C@@H](OC(N)=O)[C@@H](O)[C@H](Oc2ccc3c(O)c(NC(=O)c4ccc(O)c(CC=C(C)C)c4)c(=O)oc3c2C)OC1(C)C [Novobiocin] | 0.0827 | 0.0482 | 0.0513 | 0.0731 |  |  |  | 
N[C@@H]1CONC1=O [CycloserineD] + Cc1cc(NS(=O)(=O)c2ccc(N)cc2)no1 [Sulfamethoxazol] | 0.0449 | 0.0715 | -0.188 | -0.0418 |  |  |  | 
CCC[C@@H]1C[C@@H](C(=O)N[C@@H]([C@H]2O[C@H](SC)[C@H](O)[C@@H](O)[C@H]2O)[C@H](C)Cl)N(C)C1 [Clindamycin] + CC[C@H]1OC(=O)[C@H](C)C(=O)[C@H](C)[C@@H](O[C@@H]2O[C@H](C)C[C@H](N(C)C)[C@H]2O)[C@](C)(OC)C[C@@H](C)C(=O)[C@H](C)[C@H]2N(CCCCn3cnc(-c4cccnc4)c3)C(=O)O[C@]12C [Telithromycin] | -0.0812 | 0.0256 | 0.106 | 0.0609 |  |  |  | 
O=C(O[C@@H]1Cc2c(O)cc(O)cc2O[C@@H]1c1cc(O)c(O)c(O)c1)c1cc(O)c(O)c(O)c1 [EGCG] + Oc1cc(Cl)ccc1Oc1ccc(Cl)cc1Cl [Triclosan] | 0.0222 | 0.0962 | -0.0791 | -0.0336 |  |  |  | 
O=C1CN(/N=C/c2ccc([N+](=O)[O-])o2)C(=O)N1 [Nitrofurantoin] + CCCCCCCCCC(=O)N[C@@H]1[C@H]([C@@H]([C@H](O[C@H]1OC2=C3C=C4C=C2OC5=C(C=C(C=C5)[C@H]([C@H]6C(=O)N[C@@H](C7=C(C(=CC(=C7)O)OC8[C@H]([C@H]([C@@H]([C@H](O8)CO)O)O)O)C9=C(C=CC(=C9)[C@H](C(=O)N6)NC(=O)[C@@H]4NC(=O)[C@@H]1C2=CC(=CC(=C2)OC2=C(C=CC(=C2)[C@H](C(=O)N[C@H](CC2=CC(=C(O3)C=C2)Cl)C(=O)N1)N)O)O)O)C(=O)O)O[C@H]1[C@@H]([C@H]([C@@H]([C@H](O1)CO)O)O)NC(=O)C)Cl)CO)O)O [Teicoplanin] |  |  |  |  | -0.0914 | 0.0402 | -0.06 | -0.157
O=C1CN(/N=C/c2ccc([N+](=O)[O-])o2)C(=O)N1 [Nitrofurantoin] + CC1(C)S[C@@H]2[C@H](NC(=O)Cc3ccccc3)C(=O)N2[C@H]1C(=O)O [PenicillinG] | 0.0397 | -0.0568 | 0.13 | -0.0696 |  |  |  | 
C[C@@H](O)[C@H]1C(=O)N2C(C(=O)O)=C(SCCNC=N)C[C@H]12 [Imipenem] + CN[C@H](CC(C)C)C(=O)N[C@H]1C(=O)N[C@@H](CC(N)=O)C(=O)N[C@H]2C(=O)N[C@H]3C(=O)N[C@H](C(=O)N[C@H](C(=O)O)c4cc(O)cc(O)c4-c4cc3ccc4O)[C@H](O[C@H]3C[C@](C)(N)[C@@H](O)[C@H](C)O3)c3ccc(c(Cl)c3)Oc3cc2cc(c3O[C@@H]2O[C@H](CO)[C@@H](O)[C@H](O)[C@H]2O[C@H]2C[C@](C)(NCc3ccc(-c4ccc(Cl)cc4)cc3)[C@@H](O)[C@H](C)O2)Oc2ccc(cc2Cl)[C@H]1O [Oritavancin] | 0.0479 | -0.0256 | -0.0529 | 0.0293 |  |  |  | 
N[C@@H]1CONC1=O [CycloserineD] + CO[C@H]1/C=C/O[C@@]2(C)Oc3c(C)c(O)c4c(O)c(c(/C=N/N5CCN(C)CC5)c(O)c4c3C2=O)NC(=O)/C(C)=C\C=C\[C@H](C)[C@H](O)[C@@H](C)[C@@H](O)[C@@H](C)[C@H](OC(C)=O)[C@@H]1C [Rifampicin] | 0.0463 | -0.0935 | 0.163 | 0.0563 |  |  |  | 
CC(=O)O[C@H]1C[C@@]2(C)[C@@H](C[C@@H](O)[C@H]3[C@@]4(C)CC[C@@H](O)[C@@H](C)[C@@H]4CC[C@@]32C)/C1=C(\CCC=C(C)C)C(=O)O [Fusidic acid] + CN(C)C(=O)C(CCN1CCC(O)(c2ccc(Cl)cc2)CC1)(c1ccccc1)c1ccccc1 [Loperamide] | 0.0269 | 0.0226 | 0.128 | -0.0873 |  |  |  | 
O=C(N[C@H](CO)[C@H](O)c1ccc([N+](=O)[O-])cc1)C(Cl)Cl [Chloramphenicol] + CN[C@H](CC(C)C)C(=O)N[C@H]1C(=O)N[C@@H](CC(N)=O)C(=O)N[C@H]2C(=O)N[C@H]3C(=O)N[C@H](C(=O)N[C@H](C(=O)O)c4cc(O)cc(O)c4-c4cc3ccc4O)[C@H](O[C@H]3C[C@](C)(N)[C@@H](O)[C@H](C)O3)c3ccc(c(Cl)c3)Oc3cc2cc(c3O[C@@H]2O[C@H](CO)[C@@H](O)[C@H](O)[C@H]2O[C@H]2C[C@](C)(NCc3ccc(-c4ccc(Cl)cc4)cc3)[C@@H](O)[C@H](C)O2)Oc2ccc(cc2Cl)[C@H]1O [Oritavancin] | -0.0346 | 0.0571 | 0.0499 | 0.0647 |  |  |  | 
N[C@@H]1CONC1=O [CycloserineD] + Cc1ncc([N+](=O)[O-])n1CCO [Metronidazole] | 0.0557 | 0.0317 | -0.0766 | -0.0606 |  |  |  | 
CC(=O)O[C@H]1C[C@@]2(C)[C@@H](C[C@@H](O)[C@H]3[C@@]4(C)CC[C@@H](O)[C@@H](C)[C@@H]4CC[C@@]32C)/C1=C(\CCC=C(C)C)C(=O)O [Fusidic acid] + CO[C@H]1/C=C/O[C@@]2(C)Oc3c(C)c(O)c4c(O)c(c(/C=N/N5CCN(C)CC5)c(O)c4c3C2=O)NC(=O)/C(C)=C\C=C\[C@H](C)[C@H](O)[C@@H](C)[C@@H](O)[C@@H](C)[C@H](OC(C)=O)[C@@H]1C [Rifampicin] | 0.0314 | 0.0497 | 0.0781 | 0.0723 |  |  |  | 
